Source: ChEMBL document CHEMBL1201862, “PubChem BioAssay data set” (2004)
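Method: 48-hour compound exposure of cells in 96-well plates, five concentrations, linear interpolation of endpoints. Abbreviation: GI50, concentration required for 50% inhibition of growth.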 Active and inactive are the calls of the source. Cut-off read from the data, not from the text of the source: active = GI50 up to about 1.1 µM and inactive = higher.

Columns and labels:
Test in all cases: NCI anticancer screen, dose series, 48 h
HCT-116 = test system: HCT-116
SR = test system: SR
HCT-15 = test system: HCT-15
SNB-75 = test system: SNB-75
OVCAR-8 = test system: OVCAR-8
CAKI-1 = test system: CAKI-1
ACHN = test system: ACHN
SK-OV-3 = test system: SK-OV-3
SF-295 = test system: SF-295
SNB-19 = test system: SNB-19
MOLT-4 = test system: MOLT-4
PC-3 = test system: PC-3
HT-29 = test system: HT-29
LOX IMVI = test system: LOX IMVI
SN12C = test system: SN12C
NCI-H23 = test system: NCI-H23
KM12 = test system: KM12
TK-10 = test system: TK-10
RPMI-8226 = test system: RPMI-8226
OVCAR-5 = test system: OVCAR-5

Row | Structure (SMILES) | GI50 (HCT-116) | GI50 (SR) | GI50 (HCT-15) | GI50 (SNB-75) | GI50 (OVCAR-8) | GI50 (CAKI-1) | GI50 (ACHN) | GI50 (SK-OV-3) | GI50 (SF-295) | GI50 (SNB-19) | GI50 (MOLT-4) | GI50 (PC-3) | GI50 (HT-29) | GI50 (LOX IMVI) | GI50 (SN12C) | GI50 (NCI-H23) | GI50 (KM12) | GI50 (TK-10) | GI50 (RPMI-8226) | GI50 (OVCAR-5)
1 | C=C1C(C(=O)OC)[C@H]1C(=O)OC (some centres not stated) | > 100 µM (inactive) | > 100 µM (inactive) | > 100 µM | > 100 µM (inactive) | > 100 µM (inactive) | > 100 µM (inactive) | > 100 µM (inactive) | > 100 µM (inactive) | > 100 µM (inactive) | > 100 µM (inactive) | > 100 µM (inactive) | > 100 µM (inactive) | > 100 µM (inactive) | > 100 µM (inactive) | > 100 µM (inactive) | > 100 µM (inactive) | > 100 µM (inactive) | > 100 µM (inactive) | > 100 µM (inactive) | > 100 µM (inactive)
2 | COc1cc(/C=C/c2ccc(C)cc2)cc(OC)c1OC | 3.3 µM (inactive) | 2.52 µM (inactive) | 4.08 µM | 2.58 µM (inactive) | 4.43 µM (inactive) | 5.9 µM (inactive) | 6.31 µM (inactive) | 6.84 µM (inactive) | 2.54 µM (inactive) | 4.21 µM (inactive) | 3.91 µM (inactive) | 2.67 µM (inactive) | 2.69 µM (inactive) | 6.14 µM (inactive) | 4.57 µM (inactive) | 2.9 µM (inactive) | 3.66 µM (inactive) | 7.69 µM (inactive) | 3.8 µM (inactive) | 12.7 µM (inactive)
3 | CS(C)(=O)=N/C=C\C(=O)C(Cl)(Cl)Cl | 98.6 µM (inactive) | 58.7 µM (inactive) | > 100 µM | > 100 µM (inactive) | > 100 µM (inactive) | > 100 µM (inactive) | > 100 µM (inactive) | > 100 µM (inactive) | > 100 µM (inactive) | > 100 µM (inactive) | 53.8 µM (inactive) | 54 µM (inactive) | > 100 µM (inactive) | > 100 µM (inactive) | > 100 µM (inactive) | > 100 µM (inactive) | > 100 µM (inactive) | > 100 µM (inactive) | 83 µM (inactive) | > 100 µM (inactive)
4 | NC(=S)N/N=C/c1c[nH]c2ccccc12 | > 100 µM (inactive) | > 100 µM (inactive) | > 100 µM | 41.9 µM (inactive) | > 100 µM (inactive) | > 100 µM (inactive) | > 100 µM (inactive) | > 100 µM (inactive) | > 100 µM (inactive) | > 100 µM (inactive) | 12.3 µM (inactive) | > 100 µM (inactive) | > 100 µM (inactive) | > 100 µM (inactive) | > 100 µM (inactive) | > 100 µM (inactive) | > 100 µM (inactive) | > 100 µM (inactive) | 79.6 µM (inactive) | > 100 µM (inactive)
5 | CC1=Nc2nc3ccccc3n2C(C)(C)C1 | > 100 µM (inactive) | > 100 µM (inactive) | > 100 µM | > 100 µM (inactive) | > 100 µM (inactive) | > 100 µM (inactive) | > 100 µM (inactive) | > 100 µM (inactive) | > 100 µM (inactive) | > 100 µM (inactive) | > 100 µM (inactive) | > 100 µM (inactive) | > 100 µM (inactive) | > 100 µM (inactive) | – | > 100 µM (inactive) | > 100 µM (inactive) | > 100 µM (inactive) | > 100 µM (inactive) | > 100 µM (inactive)
6 | CCOC(=O)/C=C(/C(=O)OCC)n1ccc(=O)[nH]c1=O | 2.48 µM (inactive) | 4.36 µM (inactive) | 3.08 µM | 14 µM (inactive) | 13 µM (inactive) | 0.938 µM (active) | 3.99 µM (inactive) | 18.7 µM (inactive) | 18.7 µM (inactive) | 15.4 µM (inactive) | 2.25 µM (inactive) | 13.8 µM (inactive) | 10.9 µM (inactive) | 7.48 µM (inactive) | 7.78 µM (inactive) | 10.4 µM (inactive) | 17.6 µM (inactive) | 3.73 µM (inactive) | 2.67 µM (inactive) | 5.93 µM (inactive)
7 | CC(NNC(=O)c1cc[n+]([BH2-]C#N)cc1)c1ccccc1 (configuration not stated) | > 100 µM (inactive) | > 100 µM (inactive) | > 100 µM | > 100 µM (inactive) | > 100 µM (inactive) | > 100 µM (inactive) | > 100 µM (inactive) | > 100 µM (inactive) | > 100 µM (inactive) | > 100 µM (inactive) | > 100 µM (inactive) | > 100 µM (inactive) | > 100 µM (inactive) | > 100 µM (inactive) | > 100 µM (inactive) | > 100 µM (inactive) | > 100 µM (inactive) | > 100 µM (inactive) | > 100 µM (inactive) | > 100 µM (inactive)
8 | CCCC1=NC(C(F)(F)F)(C(F)(F)F)N=C(N2CCOCC2)O1 | > 100 µM (inactive) | > 100 µM (inactive) | > 100 µM | > 100 µM (inactive) | > 100 µM (inactive) | 63.4 µM (inactive) | – | > 100 µM (inactive) | > 100 µM (inactive) | > 100 µM (inactive) | > 100 µM (inactive) | > 100 µM (inactive) | > 100 µM (inactive) | > 100 µM (inactive) | > 100 µM (inactive) | > 100 µM (inactive) | > 100 µM (inactive) | > 100 µM (inactive) | > 100 µM (inactive) | > 100 µM (inactive)
9 | CSC1=C(C(=O)N(COCC[Si](C)(C)C)c2ccccc2Br)CCC(C(C)(C)C)C1 (configuration not stated) | 5.32 µM (inactive) | 3.42 µM (inactive) | 11.7 µM | 20.6 µM (inactive) | 17.8 µM (inactive) | 1.83 µM (inactive) | 16.4 µM (inactive) | 31.9 µM (inactive) | 9.64 µM (inactive) | 18.5 µM (inactive) | 5.87 µM (inactive) | 12.4 µM (inactive) | 15 µM (inactive) | 15.7 µM (inactive) | 14.1 µM (inactive) | 13.8 µM (inactive) | 14.2 µM (inactive) | 23.5 µM (inactive) | 10.6 µM (inactive) | 14.4 µM (inactive)
10 | Cc1ccc(NCC2CC/C(=C\c3ccc(Cl)cc3)C2=O)cc1 (configuration not stated) | 11.6 µM (inactive) | 3.87 µM (inactive) | 1.94 µM | > 100 µM (inactive) | 15.9 µM (inactive) | 15.2 µM (inactive) | 10.3 µM (inactive) | > 100 µM (inactive) | 28.1 µM (inactive) | 21.2 µM (inactive) | 3.84 µM (inactive) | 14.9 µM (inactive) | 12.4 µM (inactive) | 6.03 µM (inactive) | 13.1 µM (inactive) | 20.6 µM (inactive) | 5.66 µM (inactive) | 11.3 µM (inactive) | 0.635 µM (active) | 22 µM (inactive)
11 | O=C1C(=CNc2ccc([N+](=O)[O-])cc2)C(=O)N(c2ccccc2)C(=O)N1c1ccccc1 | > 100 µM (inactive) | > 100 µM (inactive) | 76 µM | 71.6 µM (inactive) | > 100 µM (inactive) | > 100 µM (inactive) | 64.7 µM (inactive) | > 100 µM (inactive) | 66.2 µM (inactive) | > 100 µM (inactive) | > 100 µM (inactive) | > 100 µM (inactive) | > 100 µM (inactive) | > 100 µM (inactive) | > 100 µM (inactive) | > 100 µM (inactive) | 36.7 µM (inactive) | 25.5 µM (inactive) | 71.6 µM (inactive) | > 100 µM (inactive)
12 | C[C@H](CCC1=NCCN1)[C@H]1CC[C@H]2[C@@H]3CC[C@@H]4C[C@H](O)CC[C@]4(C)[C@H]3CC[C@]12C | 4.72 µM (inactive) | 2.55 µM (inactive) | 18.5 µM | 5.07 µM (inactive) | 12 µM (inactive) | 3.51 µM (inactive) | 7.91 µM (inactive) | 18.8 µM (inactive) | 3.4 µM (inactive) | 13.9 µM (inactive) | 2.7 µM (inactive) | 4.94 µM (inactive) | 0.575 µM (active) | 1.95 µM (inactive) | 8.85 µM (inactive) | 15 µM (inactive) | 7.59 µM (inactive) | 7.74 µM (inactive) | 3.13 µM (inactive) | 10.7 µM (inactive)
13 | COc1cc(OC)c2c(c1)OC(c1ccccc1)CC2=O (configuration not stated) [DIMETHYLPINOCEMBRIN] | > 10 µM (inactive) | > 10 µM (inactive) | > 10 µM | > 10 µM (inactive) | > 10 µM (inactive) | > 10 µM (inactive) | > 10 µM (inactive) | > 10 µM (inactive) | > 10 µM (inactive) | > 10 µM (inactive) | > 10 µM (inactive) | > 10 µM (inactive) | > 10 µM (inactive) | > 10 µM (inactive) | > 10 µM (inactive) | > 10 µM (inactive) | > 10 µM (inactive) | > 10 µM (inactive) | > 10 µM (inactive) | > 10 µM (inactive)
14 | CCN(CC)CCc1c2c(nc3ccccc13)C(=O)c1cccnc1C2=O | 0.325 µM (active) | 0.211 µM (active) | 0.188 µM | 5.65 µM (inactive) | 3.52 µM (inactive) | 2.03 µM (inactive) | 0.719 µM (active) | 1.09 µM (active) | 2.02 µM (inactive) | – | 3.24 µM (inactive) | 2.82 µM (inactive) | 3.31 µM (inactive) | 0.369 µM (active) | 1.1 µM (active) | 3.08 µM (inactive) | 0.857 µM (active) | 2.66 µM (inactive) | 1.88 µM (inactive) | 4.63 µM (inactive)
